These results are taken from patent US20220370448A1, “PHARMACEUTICAL COMPOSITION COMPRISING THIRD GENERATION SMALL MOLECULE EGFR INHIBITOR AND PREPARATION METHOD THEREOF” (Jiangsu Hansoh Pharmaceutical Group Co., LTD., priority 2018, published 2022).

Data set [1] in a line: Solubility. The format is physicochemical. The settings on record: dependence on pH. The source says: The pharmaceutical composition prepared according to the present invention has a good and uniform dissolution in different dissolution media.
Data set [2] addresses wild-type EGFR (Homo sapiens, UniProt P00533). The settings on record: background statement, WO2016054987; cited from earlier work.
A short description of data set [3]: Permeability. The format is in vitro ADME.
In data set [4] the target is EGFR T790M mutant (Homo sapiens, UniProt P00533, T790M). The settings on record: background statement, WO2016054987; cited from earlier work.
Chain of EGFR T790M mutant (P00533 25-1210 T790M): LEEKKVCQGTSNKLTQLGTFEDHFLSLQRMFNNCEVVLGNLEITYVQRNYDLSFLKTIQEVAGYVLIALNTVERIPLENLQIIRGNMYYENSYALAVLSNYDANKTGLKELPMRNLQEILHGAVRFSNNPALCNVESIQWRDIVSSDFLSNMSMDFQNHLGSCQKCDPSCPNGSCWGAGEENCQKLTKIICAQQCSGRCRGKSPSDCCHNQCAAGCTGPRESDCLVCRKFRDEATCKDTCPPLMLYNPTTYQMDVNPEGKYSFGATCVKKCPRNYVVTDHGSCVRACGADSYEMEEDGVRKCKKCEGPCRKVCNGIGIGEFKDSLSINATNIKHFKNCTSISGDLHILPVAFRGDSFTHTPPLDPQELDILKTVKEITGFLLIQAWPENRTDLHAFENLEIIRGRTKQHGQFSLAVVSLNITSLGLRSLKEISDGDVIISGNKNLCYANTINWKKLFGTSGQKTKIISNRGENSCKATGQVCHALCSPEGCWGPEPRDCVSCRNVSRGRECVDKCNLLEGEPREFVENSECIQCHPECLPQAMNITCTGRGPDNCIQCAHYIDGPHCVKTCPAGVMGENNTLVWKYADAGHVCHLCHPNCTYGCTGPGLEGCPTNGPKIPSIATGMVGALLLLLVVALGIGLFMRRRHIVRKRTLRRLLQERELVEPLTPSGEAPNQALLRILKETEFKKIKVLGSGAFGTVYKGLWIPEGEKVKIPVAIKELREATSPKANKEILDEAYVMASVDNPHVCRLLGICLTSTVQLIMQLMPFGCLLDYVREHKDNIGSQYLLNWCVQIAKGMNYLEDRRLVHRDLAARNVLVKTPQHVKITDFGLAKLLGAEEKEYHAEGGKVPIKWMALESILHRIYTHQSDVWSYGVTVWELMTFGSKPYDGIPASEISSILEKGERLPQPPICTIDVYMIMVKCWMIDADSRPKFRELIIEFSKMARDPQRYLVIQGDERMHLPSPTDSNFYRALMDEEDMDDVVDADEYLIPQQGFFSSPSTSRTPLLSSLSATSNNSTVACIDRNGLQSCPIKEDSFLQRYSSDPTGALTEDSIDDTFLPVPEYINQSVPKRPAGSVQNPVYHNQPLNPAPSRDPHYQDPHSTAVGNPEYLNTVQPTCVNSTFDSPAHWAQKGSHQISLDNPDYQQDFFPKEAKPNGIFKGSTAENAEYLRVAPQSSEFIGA

Chain of wild-type EGFR (P00533 25-1210): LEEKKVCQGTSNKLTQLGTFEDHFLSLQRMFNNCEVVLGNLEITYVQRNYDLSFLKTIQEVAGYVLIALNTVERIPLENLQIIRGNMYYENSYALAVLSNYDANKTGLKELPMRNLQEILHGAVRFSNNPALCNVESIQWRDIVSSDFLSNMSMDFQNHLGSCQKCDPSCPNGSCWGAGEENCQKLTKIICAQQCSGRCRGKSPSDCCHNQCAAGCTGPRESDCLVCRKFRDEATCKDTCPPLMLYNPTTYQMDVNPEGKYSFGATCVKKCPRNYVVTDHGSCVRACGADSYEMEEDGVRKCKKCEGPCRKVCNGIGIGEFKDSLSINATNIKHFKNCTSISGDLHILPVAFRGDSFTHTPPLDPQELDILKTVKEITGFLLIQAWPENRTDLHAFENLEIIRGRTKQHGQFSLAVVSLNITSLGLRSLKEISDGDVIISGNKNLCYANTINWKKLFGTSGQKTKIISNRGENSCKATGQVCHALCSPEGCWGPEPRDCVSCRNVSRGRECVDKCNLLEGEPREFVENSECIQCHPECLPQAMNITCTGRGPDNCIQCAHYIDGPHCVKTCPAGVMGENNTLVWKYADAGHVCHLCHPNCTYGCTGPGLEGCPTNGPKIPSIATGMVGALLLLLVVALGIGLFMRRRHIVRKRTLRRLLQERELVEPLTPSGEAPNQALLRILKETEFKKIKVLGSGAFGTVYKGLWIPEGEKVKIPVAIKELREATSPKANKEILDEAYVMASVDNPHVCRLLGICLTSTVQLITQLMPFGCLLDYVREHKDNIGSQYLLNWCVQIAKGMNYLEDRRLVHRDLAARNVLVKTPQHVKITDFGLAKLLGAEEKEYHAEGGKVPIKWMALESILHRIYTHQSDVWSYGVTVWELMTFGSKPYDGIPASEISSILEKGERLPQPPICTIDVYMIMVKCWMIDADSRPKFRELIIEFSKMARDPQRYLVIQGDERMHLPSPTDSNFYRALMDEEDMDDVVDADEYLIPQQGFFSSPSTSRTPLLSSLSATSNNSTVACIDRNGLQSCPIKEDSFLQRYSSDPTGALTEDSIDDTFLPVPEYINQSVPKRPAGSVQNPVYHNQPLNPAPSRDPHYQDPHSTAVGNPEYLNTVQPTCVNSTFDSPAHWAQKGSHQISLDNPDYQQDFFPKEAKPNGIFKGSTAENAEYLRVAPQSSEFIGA

In the case of `C=CC(=O)Nc1cc(Nc2nccc(-c3cn(C4CC4)c4ccccc34)n2)c(OC)cc1N(C)CCN(C)C` [compound of formula I, N-(5-((4-(1-cyclopropyl-1H-indol-3-yl)pyrimidin-2-yl)amino)-2-((2-(dimethylamino)ethyl)(methyl)amino)-4-methoxyphenyl)acrylamide], the solubility result in data set [1] is reported as “greatly affected by pH”. Also, the “activity on wild-type EGFR” value in data set [2] is on record as “no or low activity”. Moreover, in data set [3], the permeability result is listed as “low permeability”. In data set [4], the “selectivity for inhibiting the EGFR T790M mutant” value is recorded as “high selectivity”.
